Data: paper PMC10493609 (Frontiers in Immunology, 2023)

Molecular target: T1, Galectin-3 (Gal-3) (Homo sapiens, UniProt P17931)
T1 construct: gene LGALS3; Human recombinant Gal-3
Assay: SPR kinetic analysis (Biacore)
Assay type: binding

T1 sequence (P17931 2-250): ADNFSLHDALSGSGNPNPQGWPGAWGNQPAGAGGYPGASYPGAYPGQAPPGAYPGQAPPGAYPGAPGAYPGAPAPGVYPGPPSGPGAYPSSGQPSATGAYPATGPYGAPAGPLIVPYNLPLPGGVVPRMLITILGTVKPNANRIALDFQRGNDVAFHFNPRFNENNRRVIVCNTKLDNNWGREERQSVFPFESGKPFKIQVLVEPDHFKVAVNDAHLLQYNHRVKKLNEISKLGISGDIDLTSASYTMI

GB1211
Kd: 0.0233 µM
